Data from patent US20040091947A1, “Screening strategy for anticancer drugs” (priority 2002, published 2004).

Key:
[1] = test system: HT1080 cells transduced with GSE56; experiment: FACS analysis of GF7/PI stained cells, radiation-induced changes in MI; format: cell-based, human; details: 4 mM caffeine, 9 Gy irradiation
Protocol: (§1) Mitotic index and the incidence of mitotic catastrophe were determined using mitotic cell specific antibodies (MCSA) as follows. Three different MCSA were compared using fluorescence activated cell sorting (FACS) based on immunofluorescence labeling with MCSA coupled with propidium iodide (PI) staining for DNA content. In this procedure, cells were washed, trypsinized, fixed with an equal volume of 70% ethanol (on ice), resuspended in a small volume of 1% BSA-PBS containing an MCSA, incubated for 1 hour at room temperature, and then washed and bound with secondary (fluorescently-labeled) antibody. The tested MCSA included MPM2 (available from Upstate Biotechnology, Cat. #05-368) and two antibodies provided by Dr. P. Davies (Albert Einstein College of Medicine), including the previously characterized TG3 (Anderson et al., 1998, Exp. Cell Res. 238: 498-502) and unpublished GF7 antibody.
(§2) FACS analysis of GF7/PI stained cells was used to analyze radiation-induced changes in the MI of HT1080 fibrosarcoma cells with different cell cycle checkpoint integrity status.

[2] = test system: wild-type HT1080 cells; experiment: as above; format: cell-based, human; details: 4 mM caffeine, 9 Gy irradiation
Protocol: as §1, §2

[3] = test system: BJ-ELB cells; experiment: Cell growth / cell number by Coulter counter, doxorubicin-treated cells; format: cell-based, human
Protocol: These cell lines were cultured in a 4:1 mixture of DMEM and Medium 199, with 10% fetal calf serum, supplemented with glutamine, pyruvate, penicillin and streptomycin.
For comparative analysis of specific cellular responses, a concentration of 30 nM doxorubicin was chosen, which had approximately equal growth-inhibitory effect in both cell lines (FIG. 3B).

[4] = test system: panel of 14 solid tumor-derived cell lines; details: moderate equitoxic doses of doxorubicin, 14 lines, cited from earlier work
[5] = test system: BJ-ELB cells; experiment: Fluorescence microscopy of DAPI-stained cells (micronuclei, apoptotic morphology, mitotic index, mitotic figures)
[6] = test system: BJ-EN cells; experiment: as above
[7] = test system: BJ-EN cells; experiment: Cell growth / cell number by Coulter counter, doxorubicin-treated cells
[8] = after release from 30 nM doxorubicin (3 days)
[9] = day 2 after release from 30 nM doxorubicin
[10] = two days after release from 30 nM doxorubicin (3 days)
[11] = two days after release from doxorubicin

Compound: Cn1c(=O)c2c(ncn2C)n(C)c1=O [caffeine]
- increase in MI after irradiation in the presence of caffeine [1]: up to 3 fold
- increase in MI after irradiation in the presence of caffeine [2]: ~2 fold

Compound: COc1cccc2c1C(=O)c1c(O)c3c(c(O)c1C2=O)C[C@@](O)(C(=O)CO)C[C@@H]3O[C@H]1C[C@H](N)[C@H](O)[C@H](C)O1 [doxorubicin]
- change in cell number during doxorubicin treatment ([3]; 30 nM doxorubicin, first day): increased their number on the first day
- change in cell number after release from the drug ([3]; day 3 after release (3 dR) from 30 nM doxorubicin): decreased to the same value as at the time of doxorubicin addition
- lines that showed predominantly apoptotic response ([4]; all other lines developed mitotic catastrophe): two
- lines that exhibited the senescent phenotype after doxorubicin treatment [4]: Eleven of 14
- effect of addition of doxorubicin on mitosis ([5]; 30 nM doxorubicin present): only partially inhibited
- fraction of cells with apoptotic morphology [5, 8]: 6.6%
- mitotic index (MI) [5, 9]: 8.0%
- micronucleated cell fraction [5, 10]: 26.4%
- mitotic figures that represented anaphase or telophase [5, 11]: 1%
- normal mitotic figures [5, 11]: 8%
- effect of addition of doxorubicin on mitosis ([6]; 30 nM doxorubicin present): immediate and complete cessation of mitosis
- fraction of cells with apoptotic morphology [6, 8]: 0.9%
- mitotic index (MI) [6, 9]: 0.4%
- micronucleated cell fraction [6, 10]: 1.7%
- abnormal mitotic figures [6, 11]: 40%
- mitotic figures that were metaphases and telophases [6, 11]: 29%
- normal mitotic figures [6, 11]: 60%
- change in cell number during doxorubicin treatment ([7]; 30 nM doxorubicin, 3 days, BJ-EN): essentially no change in cell number
- resistance to doxorubicin (effect on cell growth) ([7]; 3-day exposure to different concentrations, BJ-EN compared with BJ-ELB, except for the lowest drug doses): more resistant to doxorubicin than BJ-ELB cells
- change in cell number after release from the drug ([7]; three days in drug-free media after 30 nM doxorubicin for 3 days, BJ-EN): did not change significantly
